Laboratory results taken from the NIST ThermoML archive (doi:10.1016/j.fluid.2016.08.002).

Test: xn = mol fraction of the nth substance listed
Settings: Gas, Vibrating tube method

S [hydrogen sulfide] + C
Settings	mass density [kg/m3]
293.23 K, 18686 kPa, x2 = 0.8685	200.27
293.23 K, 19770 kPa, x2 = 0.8685	210.3
293.23 K, 22173 kPa, x2 = 0.8685	230.34
293.23 K, 22860 kPa, x2 = 0.8685	235.56
293.27 K, 193 kPa, x2 = 0.8197	1.54
293.27 K, 227 kPa, x2 = 0.714	1.99
293.27 K, 498 kPa, x2 = 0.8197	4.03
293.27 K, 560 kPa, x2 = 0.714	4.92
293.27 K, 7261 kPa, x2 = 0.714	85.92
293.27 K, 7749 kPa, x2 = 0.714	94.83
293.28 K, 1101 kPa, x2 = 0.714	9.72
293.28 K, 1547 kPa, x2 = 0.714	14.1
293.28 K, 2065 kPa, x2 = 0.714	19.16
293.28 K, 8092 kPa, x2 = 0.714	103.64
293.29 K, 2976 kPa, x2 = 0.714	28.53
293.29 K, 3489 kPa, x2 = 0.714	33.95
293.29 K, 8523 kPa, x2 = 0.714	108.8
293.29 K, 10516 kPa, x2 = 0.714	145.41
293.29 K, 11236 kPa, x2 = 0.714	161.66
293.29 K, 13780 kPa, x2 = 0.714	213.21
293.29 K, 19219 kPa, x2 = 0.8685	205.31
293.29 K, 23988 kPa, x2 = 0.714	321.16
293.29 K, 25012 kPa, x2 = 0.714	327.5
293.3 K, 2511 kPa, x2 = 0.714	23.63
293.3 K, 9149 kPa, x2 = 0.714	119.96
293.3 K, 9741 kPa, x2 = 0.714	129.36
293.3 K, 11789 kPa, x2 = 0.714	174.33
293.3 K, 13528 kPa, x2 = 0.714	208.17
293.3 K, 14426 kPa, x2 = 0.714	223.09
293.3 K, 15049 kPa, x2 = 0.714	233.3
293.3 K, 15503 kPa, x2 = 0.714	239.94
293.3 K, 22979 kPa, x2 = 0.714	314.55
293.3 K, 23460 kPa, x2 = 0.714	317.83
293.3 K, 24512 kPa, x2 = 0.714	324.48
293.3 K, 25515 kPa, x2 = 0.714	330.43
293.3 K, 25988 kPa, x2 = 0.714	333.07
293.31 K, 6513 kPa, x2 = 0.8197	63.51
293.31 K, 6885 kPa, x2 = 0.714	80.49
293.31 K, 12964 kPa, x2 = 0.714	198.31
293.31 K, 14523 kPa, x2 = 0.714	224.65
293.31 K, 16108 kPa, x2 = 0.714	249.28
293.31 K, 21026 kPa, x2 = 0.714	300.53
293.31 K, 22118 kPa, x2 = 0.714	308.67
293.31 K, 22512 kPa, x2 = 0.714	311.24
293.31 K, 23712 kPa, x2 = 0.714	319.93
293.31 K, 26506 kPa, x2 = 0.714	335.86
293.32 K, 5019 kPa, x2 = 0.8197	46.91
293.32 K, 5508 kPa, x2 = 0.8197	52.59
293.32 K, 5943 kPa, x2 = 0.714	66.82
293.32 K, 7004 kPa, x2 = 0.8197	68.5
293.32 K, 7520 kPa, x2 = 0.8197	74.89
293.32 K, 8507 kPa, x2 = 0.8197	87.23
293.32 K, 9526 kPa, x2 = 0.8197	100.87
293.32 K, 10518 kPa, x2 = 0.8197	114.24
293.32 K, 12220 kPa, x2 = 0.714	183.56
293.32 K, 12521 kPa, x2 = 0.714	189.88
293.32 K, 22053 kPa, x2 = 0.714	308.34
293.33 K, 1434 kPa, x2 = 0.8197	12.03
293.33 K, 3440 kPa, x2 = 0.8197	30.85
293.33 K, 6464 kPa, x2 = 0.714	75.29
293.33 K, 8008 kPa, x2 = 0.8197	80.89
293.33 K, 9072 kPa, x2 = 0.8197	94.8
293.33 K, 10169 kPa, x2 = 0.714	136.99
293.33 K, 10922 kPa, x2 = 0.8197	121.63
293.33 K, 18012 kPa, x2 = 0.714	271.26
293.33 K, 18543 kPa, x2 = 0.714	276.99
